{
  "source": "patent US12583820B2",
  "about": "“Broad spectrum antivirals against coronavirus” (priority 2020, dated 2026)",
  "key": {"NV 3CLpro": {"biological_target": "NV 3CLpro (Norovirus, UniProt Q83883)", "sequence (Q83883 1101-1281)": "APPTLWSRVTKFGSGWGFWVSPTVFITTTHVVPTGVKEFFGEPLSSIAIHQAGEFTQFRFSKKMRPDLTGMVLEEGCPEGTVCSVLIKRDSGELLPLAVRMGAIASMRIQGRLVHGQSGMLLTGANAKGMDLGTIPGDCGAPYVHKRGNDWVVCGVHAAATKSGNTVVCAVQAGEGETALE", "test": "biochemical", "type": "biochemical"}, "[1]": {"test_system": "NV in the replicon harboring cells (HG23 cells)", "test": "microbe, parasite or virus in culture", "type": "cell-based, norovirus (NV)"}, "in vitro": {"test": "in vitro", "conditions": "human"}, "[2]": {"test_system": "Huh-7, CRFK or CCL1 cells", "test": "Nonspecific cytotoxic effects (CC50), CytoTox 96 kit"}, "3CLpro of MERS-CoV": {"biological_target": "3CLpro of MERS-CoV (Middle East respiratory syndrome-related coronavirus, UniProt K9N7C7)", "sequence (K9N7C7 3248-3553 limits assumed)": "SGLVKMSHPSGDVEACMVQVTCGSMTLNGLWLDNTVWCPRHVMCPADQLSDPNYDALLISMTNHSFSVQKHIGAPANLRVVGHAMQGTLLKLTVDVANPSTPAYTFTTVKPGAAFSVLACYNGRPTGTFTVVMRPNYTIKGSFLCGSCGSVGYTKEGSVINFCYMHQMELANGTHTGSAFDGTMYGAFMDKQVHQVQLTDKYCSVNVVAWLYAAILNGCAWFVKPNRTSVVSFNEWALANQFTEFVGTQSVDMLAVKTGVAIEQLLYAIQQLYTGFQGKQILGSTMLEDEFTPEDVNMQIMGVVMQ", "test": "biochemical", "type": "biochemical"}, "MERS-CoV": {"test_system": "MERS-CoV", "test": "microbe, parasite or virus in culture", "type": "cell-based", "conditions": "read-out: EC50 in cell culture (μM) MERS-CoV"}, "[3]": {"test_system": "feline infectious peritonitis (FIP), a coronavirus-induced systemic disease", "conditions": "cited from earlier work"}, "3CLpro of SARS-CoV": {"biological_target": "3CLpro of SARS-CoV (Severe acute respiratory syndrome coronavirus, UniProt P0C6X7)", "type": "biochemical", "conditions": "read-out: IC50 in enzyme assay (μM) SARS-CoV"}, "3CLpro of SARS-CoV-2": {"biological_target": "T1, 3CLpro of SARS-CoV-2 (Severe acute respiratory syndrome coronavirus 2, UniProt P0DTD1)", "T1 construct": "The codon-optimized cDNA of full length of 3CLpro of SARS-CoV-2; 6xHis (N); made in house; pET-28a(+) vector (points to E. coli, my inference)", "test": "biochemical", "type": "biochemical"}, "SARS-CoV-2": {"test_system": "SARS-CoV-2", "test": "microbe, parasite or virus in culture", "type": "cell-based", "conditions": "Severe acute respiratory syndrome coronavirus 2, Vero C1008, read-out: EC50 in cell culture (μM) SARS-CoV-2"}, "MHV-1": {"test_system": "MHV-1", "test": "microbe, parasite or virus in culture", "type": "cell-based, mouse hepatitis virus (MHV)", "conditions": "Murine coronavirus, read-out: EC50 in cell culture (μM) MHV"}, "FIPV": {"test_system": "FIPV", "test": "microbe, parasite or virus in culture", "type": "cell-based", "conditions": "Alphacoronavirus 1, CRFK, read-out: EC50 in cell culture (μM) FIPV"}, "[4]": {"test": "Nonspecific cytotoxic effects (CC50), CytoTox 96 kit", "conditions": "Huh-7, CRFK or CCL1 cells (confluent, 96-well plates)"}, "[5]": {"conditions": "Norovirus, HG23, read-out: EC50 (μM) ± SD"}, "[6]": {"conditions": "Huh-7, CRFK, or CCL1 cells, Table 7"}, "[7]": {"conditions": "read-out: MERS-CoV IC50 (uM) enzyme"}},
  "note": "Read-outs that look alike come from different tables or passages of the source.",
  "data": [
    {"molecule": "O=C(N[C@@H](CC1CCCCC1)C(=O)N[C@@H](C[C@@H]1CCNC1=O)C(O)S(=O)(=O)O)OC1(c2cccc(Cl)c2)CC1", "note": "(stereo partly drawn) [Compound 6q]", "values": [
      {"measurement": "IC50", "setting": "NV 3CLpro; read-out: IC50 (μM) ± SD", "value": "0.27 ± 0.04", "unit": "µM"},
      {"measurement": "EC50", "setting": "[1]; read-out: EC50 (μM) ± SD", "value": "0.18 ± 0.04", "unit": "µM"},
      {"measurement": "CC50", "setting": "HG23 cells", "value": "42300 ± 15600", "unit": "nM"}
    ]},
    {"molecule": "O=C[C@H](C[C@@H]1CCNC1=O)NC(=O)[C@H](CC1CCCCC1)NC(=O)OC1(c2cccc(Cl)c2)CC1", "note": "[Compound 5q]", "values": [
      {"measurement": "IC50", "setting": "NV 3CLpro", "value": "0.28 ± 0.06", "unit": "µM"},
      {"measurement": "EC50", "setting": "[1]; [5]", "value": "0.25 ± 0.07", "unit": "µM"},
      {"measurement": "CC50", "setting": "in vitro", "value": "36500 ± 7100", "unit": "nM"}
    ]},
    {"molecule": "((1s,4S)-4-Propylcyclohexyl) methyl-d2 ((2S)-4-methyl-1-oxo-1-(((2S)-1-oxo-3-(2-oxopyrrolidin-3-yl) propan-2-yl) amino) pentan-2-yl) carbamate [Compound 9b]", "values": [
      {"measurement": "CC50", "setting": "[2]; [6]", "value": "> 100000", "unit": "nM"}
    ]},
    {"molecule": "O=C[C@H](C[C@@H]1CCNC1=O)NC(=O)[C@H](CC1CCCCC1)NC(=O)OC/C=C/c1cccc(Cl)c1", "note": "[Compound 5s]", "values": [
      {"measurement": "IC50", "setting": "NV 3CLpro", "value": "0.14 ± 0.01", "unit": "µM"},
      {"measurement": "EC50", "setting": "[1]; [5]", "value": "0.06 ± 0.01", "unit": "µM"},
      {"measurement": "CC50", "setting": "in vitro", "value": "24100 ± 600", "unit": "nM"}
    ]},
    {"molecule": "CC(C)(OC(=O)N[C@@H](CC1CCCCC1)C(=O)N[C@H](C=O)C[C@@H]1CCNC1=O)c1cccc(Cl)c1", "note": "[Compound 5a (Scheme 2)]", "values": [
      {"measurement": "IC50", "setting": "3CLpro of MERS-CoV; [7]", "value": 11.5, "unit": "µM"},
      {"measurement": "IC50", "setting": "NV 3CLpro; read-out: IC50 (μM) ± SD", "value": "2.9 ± 0.9", "unit": "µM"},
      {"measurement": "EC50", "setting": "[1]; read-out: EC50 (μM) ± SD", "value": "3.7 ± 2.3", "unit": "µM"},
      {"measurement": "CC50", "setting": "HG23 cells", "value": "> 100000", "unit": "nM"}
    ]},
    {"molecule": "Sodium (2S)-1-hydroxy-2-((S)-4-methyl-2-(((((1s,4S)-4-propylcyclohexyl)oxy)carbonyl) amino)pentanamido)-3-((S)-2-oxopyrrolidin-3-yl)propane-1-sulfonate [Compound 3c]", "values": [
      {"measurement": "CC50", "setting": "[2]; [6]", "value": "> 100000", "unit": "nM"}
    ]},
    {"molecule": "CC(C)C[C@H](NC(=O)OCC(C)(C)c1ccccc1)C(=O)N[C@H](C=O)C[C@@H]1CCNC1=O", "note": "[Compound 5f (Scheme 2)]", "values": [
      {"measurement": "IC50", "setting": "3CLpro of MERS-CoV; read-out: MERS-CoV IC50(μM) Enzyme", "value": 0.8, "unit": "µM"},
      {"measurement": "IC50", "setting": "NV 3CLpro; read-out: IC50 (μM) ± SD", "value": "0.45 ± 0.07", "unit": "µM"},
      {"measurement": "EC50", "setting": "[1]; read-out: EC50 (μM) ± SD", "value": "0.65 ± 0.07", "unit": "µM"},
      {"measurement": "CC50", "setting": "HG23 cells", "value": "> 100000", "unit": "nM"}
    ]},
    {"molecule": "CC(C)C[C@H](NC(=O)OCCCc1cccc(Cl)c1)C(=O)N[C@@H](C[C@@H]1CCNC1=O)C(O)S(=O)(=O)O", "note": "(stereo partly drawn) [Compound 6n]", "values": [
      {"measurement": "IC50", "setting": "NV 3CLpro; read-out: IC50 (μM) ± SD", "value": "0.19 ± 0.06", "unit": "µM"},
      {"measurement": "EC50", "setting": "[1]; read-out: EC50 (μM) ± SD", "value": "0.09 ± 0.01", "unit": "µM"},
      {"measurement": "CC50", "setting": "HG23 cells", "value": "> 100000", "unit": "nM"}
    ]},
    {"molecule": "CC(C)C[C@H](NC(=O)OC/C=C/c1cccc(Cl)c1)C(=O)N[C@@H](C[C@@H]1CCNC1=O)C(O)S(=O)(=O)O", "note": "(stereo partly drawn) [Compound 6t]", "values": [
      {"measurement": "IC50", "setting": "NV 3CLpro; read-out: IC50 (μM) ± SD", "value": "0.11 ± 0.02", "unit": "µM"},
      {"measurement": "EC50", "setting": "[1]; read-out: EC50 (μM) ± SD", "value": "0.08 ± 0.02", "unit": "µM"},
      {"measurement": "CC50", "setting": "HG23 cells", "value": "> 100000", "unit": "nM"}
    ]},
    {"molecule": "CC(C)C[C@H](NC(=O)OCCCc1ccccc1)C(=O)N[C@@H](C[C@@H]1CCNC1=O)C(O)S(=O)(=O)O", "note": "(stereo partly drawn) [Compound 6m]", "values": [
      {"measurement": "IC50", "setting": "NV 3CLpro; read-out: IC50 (μM) ± SD", "value": "0.6 ± 0.14", "unit": "µM"},
      {"measurement": "EC50", "setting": "[1]; read-out: EC50 (μM) ± SD", "value": "0.85 ± 0.07", "unit": "µM"},
      {"measurement": "CC50", "setting": "HG23 cells", "value": "> 100000", "unit": "nM"}
    ]},
    {"molecule": "CC(C)C[C@H](NC(=O)OC1(c2cccc(Cl)c2)CC1)C(=O)N[C@H](C=O)C[C@@H]1CCNC1=O", "note": "[Compound 5r]", "values": [
      {"measurement": "IC50", "setting": "NV 3CLpro", "value": "0.28 ± 0.03", "unit": "µM"},
      {"measurement": "EC50", "setting": "[1]; [5]", "value": "0.65 ± 0.2", "unit": "µM"},
      {"measurement": "CC50", "setting": "in vitro", "value": "> 100000", "unit": "nM"}
    ]},
    {"molecule": "CC(C)C[C@H](NC(=O)OCc1ccccc1)C(=O)N[C@@H](C[C@@H]1CCNC1=O)C(O)S(=O)(=O)[O-].[Na+]", "note": "(stereo partly drawn) [GC376, reference compound]", "values": [
      {"measurement": "EC50", "setting": "MERS-CoV", "value": "[…]"},
      {"measurement": "clinical efficacy in cats with feline infectious peritonitis (FIP)", "setting": "[3]", "value": "reversed the progression of FIP and resulted in clinical remission"},
      {"measurement": "CC50", "setting": "[2]; 72 h, 1 to 100 μM, Table 1", "value": "> 100000", "unit": "nM"}
    ]},
    {"molecule": "CCCCC1CCC(OC(=O)N[C@@H](CC(C)C)C(=O)N[C@H](C=O)C[C@@H]2CCNC2=O)CC1", "note": "(stereo partly drawn) [Compound 6e (Scheme 1), 4-butylcyclohexyl ((S)-4-methyl-1-oxo-1-(((S)-1-oxo-3-((S)-2-oxopyrrolidin-3-yl)propan-2-yl)amino)pentan-2-yl)carbamate]", "values": [
      {"measurement": "IC50", "setting": "3CLpro of MERS-CoV; read-out: IC50 in enzyme assay (μM) MERS-CoV", "value": 0.15, "unit": "µM"},
      {"measurement": "IC50", "setting": "3CLpro of SARS-CoV", "value": 0.9, "unit": "µM"},
      {"measurement": "IC50", "setting": "3CLpro of SARS-CoV-2", "value": 800, "unit": "nM"},
      {"measurement": "EC50", "setting": "SARS-CoV-2", "value": 0.1, "unit": "µM"},
      {"measurement": "EC50", "setting": "MHV-1", "value": 0.12, "unit": "µM"},
      {"measurement": "EC50", "setting": "FIPV", "value": 0.22, "unit": "µM"},
      {"measurement": "CC50 at 72 h", "setting": "[4]", "value": "> 100000", "unit": "nM"}
    ]},
    {"molecule": "CC(C)(Cc1cccc(Cl)c1)OC(=O)N[C@@H](CC1CCCCC1)C(=O)N[C@H](C=O)C[C@@H]1CCNC1=O", "note": "[Compound 5h (Scheme 2)]", "values": [
      {"measurement": "IC50", "setting": "3CLpro of MERS-CoV; [7]", "value": "> 10", "unit": "µM"},
      {"measurement": "IC50", "setting": "NV 3CLpro; read-out: IC50 (μM) ± SD", "value": "7.7 ± 1.7", "unit": "µM"},
      {"measurement": "EC50", "setting": "[1]; read-out: EC50 (μM) ± SD", "value": "5.4 ± 1.1", "unit": "µM"},
      {"measurement": "CC50", "setting": "HG23 cells", "value": "15600 ± 1800", "unit": "nM"}
    ]}
  ]
}
